This is an account of results in ChEMBL document CHEMBL3044697, “Natural products-based insecticidal agents 13. Semisynthesis and insecticidal activity of novel phenazine derivatives of 4β-acyloxypodophyllotoxin modified in the E-ring against Mythimna separata Walker in vivo” (2013).

Structures are written as SMILES. Calls of active or inactive are those of the source. No cut-off for these calls is given here.

Assay [1] relates to Mythimna separata. Description: Insecticidal activity against Mythimna separata (Oriental armyworm) pre-third-instar larvae fed on 1 mg/ml compound pre-treated wheat leaves assessed as insect mortality by leaf-dipping method. The note with it: TDE = time-dependent effect. It is filed as functional, organism-based.
Assay [2] has as its system Mythimna separata. Description: Insecticidal activity against Mythimna separata (Oriental armyworm) pre-third-instar larvae fed on 1 mg/ml compound pre-treated wheat leaves assessed as insect mortality measured after 34 days by leaf-dipping method. It is filed as functional.
Assay [3] deals with Mythimna separata. Briefly: Insecticidal activity against Mythimna separata (Oriental armyworm) pre-third-instar larvae fed on 1 mg/ml compound pre-treated wheat leaves assessed as insect mortality measured after 10 days by leaf-dipping method. It counts as functional.
In assay [4] the test system is Mythimna separata. Description: Insecticidal activity against Mythimna separata (Oriental armyworm) pre-third-instar larvae fed on 1 mg/ml compound pre-treated wheat leaves assessed as induction of malformation of pupae with imperfect wings measured during emergence period by leaf-dipping method. It counts as functional, organism-based.
Assay [5] concerns Mythimna separata. Briefly: Insecticidal activity against Mythimna separata (Oriental armyworm) pre-third-instar larvae fed on 1 mg/ml compound pre-treated wheat leaves assessed as insect mortality measured after 20 days by leaf-dipping method. It is filed as functional.
The subject of assay [6] is Mythimna separata. Description: Insecticidal activity against Mythimna separata (Oriental armyworm) pre-third-instar larvae fed on 1 mg/ml compound pre-treated wheat leaves assessed as induction of malformation of pupae measured during pupation period by leaf-dipping method. It counts as functional, organism-based.

For `COc1cc([C@@H]2c3cc4c(cc3[C@@H](OC(=O)c3cccc(C)c3)[C@H]3COC(=O)[C@H]23)OCO4)cc2nc3ccccc3nc12`, the Activity entry in the assay with Mythimna separata [1] was “tde”. Further, the mortality in the assay on Mythimna separata [2] stood at 41.4%; in the assay with Mythimna separata [3] it was 6.7%; in the assay with Mythimna separata [5] it was 13.8%. The outcome in the assay on Mythimna separata [4] was Active.

With `COc1cc([C@@H]2c3cc4c(cc3[C@@H](O)[C@H]3COC(=O)[C@H]23)OCO4)cc2nc3ccccc3nc12`, in the assay on Mythimna separata [1], the Activity entry was “tde”. The mortality was 31% with Mythimna separata [2], 3.3% with Mythimna separata [3] and 13.8% in the assay on Mythimna separata [5]. Further, in the assay with Mythimna separata [6], the outcome was Active.

For the compound `CCCC(=O)O[C@@H]1c2cc3c(cc2[C@@H](c2cc(OC)c4nc5ccccc5nc4c2)[C@H]2C(=O)OC[C@@H]21)OCO3`, the Activity entry with Mythimna separata [1] is “tde”. The mortality in the assay on Mythimna separata [2] stood at 37.9%; in the assay on Mythimna separata [3], 3.3%; in the assay on Mythimna separata [5], 10.3%. For the same compound, the result in the assay on Mythimna separata [4] was Active.

For the compound `COc1cc([C@@H]2c3cc4c(cc3[C@@H](OC(=O)c3ccc(Cl)c([N+](=O)[O-])c3)[C@H]3COC(=O)[C@H]23)OCO4)cc2nc3ccccc3nc12`, the Activity result with Mythimna separata [1] was “tde”. For the same compound, the mortality is 55.2% with Mythimna separata [2], 10% in the assay with Mythimna separata [3] and 27.6% with Mythimna separata [5]. The result with Mythimna separata [4] was Active.

With `COc1cc([C@@H]2c3cc4c(cc3[C@@H](OC(=O)c3ccccc3)[C@H]3COC(=O)[C@H]23)OCO4)cc2nc3ccccc3nc12`, the Activity entry with Mythimna separata [1] is “tde”. Besides, the mortality was found to be 24.1% with Mythimna separata [2], 3.3% in the assay on Mythimna separata [3] and 17.2% in the assay with Mythimna separata [5].

Take `CCCCCCCCCCCC(=O)O[C@@H]1c2cc3c(cc2[C@@H](c2cc(OC)c4nc5ccccc5nc4c2)[C@H]2C(=O)OC[C@@H]21)OCO3`: the Activity entry in the assay with Mythimna separata [1] was “tde”. The mortality in the assay with Mythimna separata [2] turned out to be 34.5%; in the assay on Mythimna separata [3] it was 0%; in the assay on Mythimna separata [5] it was 6.9%. Further, in the assay with Mythimna separata [6], the outcome was Active.

`CC(=O)O[C@@H]1C[C@H](O)[C@@]23CO[C@@H](O)[C@]1(C)[C@@H]2C[C@@H](O)[C@]1(C)[C@@H]3C(=O)[C@H](OC(C)=O)[C@@]2(C)[C@H](c3ccoc3)C[C@H]3O[C@]321` [TOOSENDANIN]: the Activity result in the assay with Mythimna separata [1] was “tde”. Also, the values for the mortality with Mythimna separata [2], in the assay on Mythimna separata [3] and in the assay on Mythimna separata [5] were 51.7%, 10% and 27.6%, respectively.

Take `COc1cc([C@@H]2c3cc4c(cc3[C@@H](OC(=O)c3cccc(Cl)c3)[C@H]3COC(=O)[C@H]23)OCO4)cc2nc3ccccc3nc12`: the Activity entry with Mythimna separata [1] is “tde”. The mortality with Mythimna separata [2] was determined as 41.4%; in the assay with Mythimna separata [3], 6.7%; with Mythimna separata [5] it was 17.2%. The result in the assay on Mythimna separata [6] was Active.

Consider `CCCCCCCCCCC(=O)O[C@@H]1c2cc3c(cc2[C@@H](c2cc(OC)c4nc5ccccc5nc4c2)[C@H]2C(=O)OC[C@@H]21)OCO3`, for which the Activity entry in the assay on Mythimna separata [1] is “tde”. In addition, the mortality in the assay on Mythimna separata [2] is given as 37.9%; with Mythimna separata [3], 0%; in the assay on Mythimna separata [5], 10.3%. Moreover, the outcome with Mythimna separata [4] and in the assay on Mythimna separata [6] was Active.

As for `COc1cc([C@@H]2c3cc4c(cc3[C@@H](OC(=O)c3ccccc3Cl)[C@H]3COC(=O)[C@H]23)OCO4)cc2nc3ccccc3nc12`, the Activity entry in the assay with Mythimna separata [1] was “tde”. For the same compound, the mortality in the assay with Mythimna separata [2] is reported as 51.7%; in the assay with Mythimna separata [3], 10%; in the assay on Mythimna separata [5], 20.7%. In the assay with Mythimna separata [6], the result was Active.

Consider `COc1cc([C@@H]2c3cc4c(cc3[C@@H](O)[C@H]3COC(=O)[C@H]23)OCO4)cc(OC)c1O` [4'-DEMETHYLEPIPODOPHYLLOTOXIN], for which, in the assay with Mythimna separata [1], the Activity entry was “tde”. The mortality in the assay with Mythimna separata [2] worked out at 37.9%; in the assay with Mythimna separata [3], 6.7%; in the assay on Mythimna separata [5] it was 13.8%.

Take `COc1cc([C@@H]2c3cc4c(cc3[C@@H](OC(=O)c3ccc(Cl)cc3)[C@H]3COC(=O)[C@H]23)OCO4)cc2nc3ccccc3nc12`: the Activity result with Mythimna separata [1] was “tde”. Besides, the mortality was found to be 48.3% in the assay on Mythimna separata [2], 0% in the assay with Mythimna separata [3] and 17.2% in the assay with Mythimna separata [5].

In the case of `CCCCCCCCCCCCCCCC(=O)O[C@@H]1c2cc3c(cc2[C@@H](c2cc(OC)c4nc5ccccc5nc4c2)[C@H]2C(=O)OC[C@@H]21)OCO3`, the Activity result with Mythimna separata [1] was “tde”. Moreover, the mortality is given as 27.6% in the assay with Mythimna separata [2], 0% with Mythimna separata [3] and 6.9% in the assay with Mythimna separata [5].

Consider `COc1cc([C@@H]2c3cc4c(cc3[C@@H](OC(=O)c3ccc([N+](=O)[O-])cc3)[C@H]3COC(=O)[C@H]23)OCO4)cc2nc3ccccc3nc12`, for which the Activity result in the assay with Mythimna separata [1] was “tde”. Further, the mortality in the assay with Mythimna separata [2] stood at 37.9%; in the assay on Mythimna separata [3], 3.3%; in the assay with Mythimna separata [5], 13.8%.

For the compound `CCC(=O)O[C@@H]1c2cc3c(cc2[C@@H](c2cc(OC)c4nc5ccccc5nc4c2)[C@H]2C(=O)OC[C@@H]21)OCO3`, the Activity result in the assay with Mythimna separata [1] was “tde”. The mortality in the assay on Mythimna separata [2] is listed as 55.2%; in the assay on Mythimna separata [3] it was 20%; with Mythimna separata [5] it was 27.6%. In addition, the outcome with Mythimna separata [4] was Active.

For `COc1cc([C@@H]2c3cc4c(cc3[C@@H](OC(C)=O)[C@H]3COC(=O)[C@H]23)OCO4)cc2nc3ccccc3nc12`, the Activity result with Mythimna separata [1] is “tde”. The mortality turned out to be 41.4% with Mythimna separata [2], 6.7% in the assay with Mythimna separata [3] and 20.7% in the assay on Mythimna separata [5].

As for `COc1cc([C@@H]2c3cc4c(cc3[C@H](O)[C@H]3COC(=O)[C@H]23)OCO4)cc(OC)c1OC` [PODOFILOX], the Activity result in the assay with Mythimna separata [1] is “tde”. Besides, the mortality was found to be 34.5% in the assay on Mythimna separata [2], 6.7% with Mythimna separata [3] and 17.2% with Mythimna separata [5].

With `COc1cc([C@@H]2c3cc4c(cc3[C@@H](OC(=O)Cc3ccc5ccccc5c3)[C@H]3COC(=O)[C@H]23)OCO4)cc2nc3ccccc3nc12`, the Activity entry in the assay with Mythimna separata [1] was “tde”. Moreover, the mortality is recorded as 51.7% in the assay on Mythimna separata [2], 3.3% in the assay with Mythimna separata [3] and 6.9% in the assay with Mythimna separata [5]. Besides, the outcome in the assay on Mythimna separata [4] was Active.
